{
  "source": "patent US6642266B2",
  "about": "“EP4 receptor selective agonists in the treatment of osteoporosis” (Pfizer Inc., priority 1999, dated 2003)",
  "key": {"EP1 receptor": {"molecular_target": "T1, EP1 receptor (Homo sapiens, UniProt P34995)", "T1 construct": "expressed in transfected cells", "T1 sequence (P34995 1-402)": "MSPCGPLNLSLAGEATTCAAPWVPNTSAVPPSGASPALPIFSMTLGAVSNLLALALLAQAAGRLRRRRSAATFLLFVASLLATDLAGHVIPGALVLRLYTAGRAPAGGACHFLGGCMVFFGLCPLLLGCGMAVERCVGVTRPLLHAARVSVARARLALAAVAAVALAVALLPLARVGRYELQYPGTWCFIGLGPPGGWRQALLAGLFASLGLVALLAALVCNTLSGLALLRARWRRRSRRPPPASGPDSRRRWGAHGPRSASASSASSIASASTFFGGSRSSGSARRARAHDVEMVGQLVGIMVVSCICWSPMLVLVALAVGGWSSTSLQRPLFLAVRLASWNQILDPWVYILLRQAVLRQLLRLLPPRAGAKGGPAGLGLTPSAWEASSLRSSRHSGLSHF", "assay": "Assay for binding to prostaglandin E2 receptors (3H-PGE2 displacement), EP1", "conditions": "read-out: IC50 at EP1 receptor subtype", "method": "(§1) Membrane Preparation: All operations are performed at 4° C. Transfected cells expressing prostagiandin E2 type 1 receptors (EP1), type 2 (EP2), type 3 (EP3) or type 4 (EP4) receptors are harvested and suspended to 2 million cells per ml in Buffer A [50 mM Tris-HCl (pH 7.4), 10 mM MgCl2, 1 mM EDTA, 1 mM Pefabloc peptide, (Boehringer Mannheim Corp., Indianapolis, Ind.), 10 uM Phosporamidon peptide, (Sigma, St. Louis, Mo.), 1 uM pepstatin A peptide, (Sigma, St. Louis, Mo.), 10 uM elastatinal peptide, (Sigma, St. Louis, Mo.), 100 uM antipain peptide, (Sigma, St. Louis, Mo.)]. The cells are lysed by sonification with a Branson Sonifier (Model #250, Branson Ultrasonics Corporation, Danbury, Conn.) in 2 fifteen second bursts. Unlysed cells and debris are removed by centrifugation at 100×g for 10 min. […] Pelleted membranes are resuspended to 3-10 mg of protein per ml of Buffer A, the protein concentration being determined by the method of Bradford [Bradford, M., Anal. Biochem., 72, 248 (1976)]. […]\n(§2) Binding Assay: Frozen membranes prepared as above are thawed and diluted to 0.5 mg/ml (for rat EP2) or 0.3 mg/ml (for rat EP4) in Buffer A above. […] To determine the amount of ^3H-prostaglandin bound to the membranes, the dried filters are placed into plastic bags with scintillation fluid and counted in a LKB 1205 Betaplate reader (Wallac, Gaithersburg, Md.). […]"}, "EP4 receptor": {"molecular_target": "T2, EP4 receptor (Rattus norvegicus, UniProt P43114)", "T2 construct": "expressed in transfected cells", "T2 sequence (P43114 whole entry)": "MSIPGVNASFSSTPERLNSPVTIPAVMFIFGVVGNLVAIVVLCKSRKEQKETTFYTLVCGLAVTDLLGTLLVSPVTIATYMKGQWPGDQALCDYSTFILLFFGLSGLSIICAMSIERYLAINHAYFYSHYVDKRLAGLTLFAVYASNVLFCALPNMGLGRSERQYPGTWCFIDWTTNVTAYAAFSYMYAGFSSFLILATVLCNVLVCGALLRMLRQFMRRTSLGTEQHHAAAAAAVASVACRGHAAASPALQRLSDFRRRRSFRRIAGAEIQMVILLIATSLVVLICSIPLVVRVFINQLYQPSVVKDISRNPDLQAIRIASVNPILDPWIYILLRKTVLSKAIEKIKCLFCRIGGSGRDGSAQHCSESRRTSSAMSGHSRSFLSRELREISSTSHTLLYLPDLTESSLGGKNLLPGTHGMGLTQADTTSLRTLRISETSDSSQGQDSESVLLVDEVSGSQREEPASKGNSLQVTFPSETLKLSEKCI", "assay": "Assay for binding to prostaglandin E2 receptors (3H-PGE2 displacement), EP4", "method": "as §1, §2"}, "EP2 receptor": {"molecular_target": "T3, EP2 receptor (Rattus norvegicus, UniProt Q62928)", "T3 construct": "expressed in transfected cells", "T3 sequence (Q62928 whole entry)": "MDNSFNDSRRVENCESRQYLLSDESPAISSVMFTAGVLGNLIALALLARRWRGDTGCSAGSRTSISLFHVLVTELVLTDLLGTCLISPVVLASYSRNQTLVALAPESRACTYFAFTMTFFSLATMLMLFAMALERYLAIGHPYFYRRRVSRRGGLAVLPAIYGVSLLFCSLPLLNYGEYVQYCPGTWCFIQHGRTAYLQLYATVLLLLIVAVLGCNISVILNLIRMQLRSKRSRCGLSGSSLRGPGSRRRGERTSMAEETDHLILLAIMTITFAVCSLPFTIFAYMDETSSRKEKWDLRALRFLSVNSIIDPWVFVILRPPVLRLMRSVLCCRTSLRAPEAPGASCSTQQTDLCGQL", "assay": "Assay for binding to prostaglandin E2 receptors (3H-PGE2 displacement), EP2", "conditions": "read-out: IC50 at EP2 receptor subtype", "method": "as §1, §2"}, "EP3 receptor": {"molecular_target": "T4, EP3 receptor (Homo sapiens, UniProt P43115)", "T4 construct": "expressed in transfected cells", "T4 sequence (P43115 1-390)": "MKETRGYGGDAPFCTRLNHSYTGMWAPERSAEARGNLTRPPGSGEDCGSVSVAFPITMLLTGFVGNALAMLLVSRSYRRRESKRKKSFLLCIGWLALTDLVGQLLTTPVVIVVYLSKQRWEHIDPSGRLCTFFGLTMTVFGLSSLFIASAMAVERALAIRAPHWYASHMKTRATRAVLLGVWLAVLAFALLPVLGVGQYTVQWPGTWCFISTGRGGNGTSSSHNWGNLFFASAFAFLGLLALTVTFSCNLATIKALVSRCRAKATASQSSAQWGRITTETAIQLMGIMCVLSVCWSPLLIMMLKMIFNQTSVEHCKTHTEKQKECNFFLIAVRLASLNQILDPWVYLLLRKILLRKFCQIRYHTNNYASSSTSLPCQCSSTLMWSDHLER", "assay": "Assay for binding to prostaglandin E2 receptors (3H-PGE2 displacement), EP3", "conditions": "read-out: IC50 at EP3 receptor subtype", "method": "as §1, §2"}, "OVX rat model": {"system": "OVX rat model", "assay": "Bone mass restoration in OVX rat model (femoral DEXA)", "type": "in vivo", "conditions": "subcutaneous 30 mg/kg/day for 28 days", "method": "The purpose of this study is to determine whether an EP4 receptor selective agonist, and specifically 7-(2-(3-hydroxy-4-phenyl-butyl)-5-oxo-pyrrolidin-1-yl)-heptanoic acid, can restore bone mass in OVX rat model.\nSprague-Dawley […] rats were ovariectomized (OVX) at 3.5 months of age. Ten months after OVX, the rats were treated by subcutaneous injection with vehicle or 7-(2-(3-hydroxy-4-phenyl-butyl)-5-oxo-pyrrolidin-1-yl)-heptanoic acid at 30 mg/kg/day for 28 days. The rats were autopsied. The right femur from each rat was removed at autopsy and scanned using dual energy x-ray absorptiometry (DEXA, QDR 1000/W, Hologic Inc., Waltham, Mass.) equipped with “Regional High Resolution Scan” software (Hologic Inc., Waltham, Mass.). The scan field size was 5.08×1.902 cm, resolution is 0.0254×0.0127 cm and the scan speed was 7.25 mm/second. The femoral scan images were analyzed. Bone mineral content (BMC) and bone mineral density (BMD) of whole femora (WF), distal femoral metaphysis (DFM), and femoral shaft (FS) were determined according to the method described in H. Z. Ke et al., Droloxifene, a New Estrogen Antagonist/Agonist, Prevents Bone Loss in Ovariectomized Rats. ENDOCRINOLOGY 136;2435-2441, 1995."}, "[1]": {"conditions": "OVX rats, compared with OVX rats treated with vehicle"}},
  "data": [
    {"smiles": "O=C(O)CCCCCCN1C(=O)CCC1CCC(O)Cc1ccccc1", "note": "(stereo not drawn) [7-(2-(3-hydroxy-4-phenyl-butyl)-5-oxo-pyrrolidin-1-yl)-heptanoic acid]", "values": [
      {"measurement": "IC50", "setting": "EP1 receptor", "result": "> 3.2", "unit": "µM"},
      {"measurement": "IC50", "setting": "EP4 receptor", "result": 0.016, "unit": "µM"},
      {"measurement": "IC50", "setting": "EP2 receptor", "result": "> 3.2", "unit": "µM"},
      {"measurement": "IC50", "setting": "EP3 receptor", "result": "> 3.2", "unit": "µM"},
      {"measurement": "PGE2-like side effects", "setting": "OVX rat model; OVX rats", "result": "No PGE2-like side effects were seen"},
      {"measurement": "distal femoral BMC increased", "setting": "OVX rat model; [1]", "result": 8, "unit": "%"},
      {"measurement": "distal femoral BMD increased", "setting": "OVX rat model; [1]", "result": 8, "unit": "%"},
      {"measurement": "femoral shaft BMC increased", "setting": "OVX rat model; [1]", "result": 20, "unit": "%"},
      {"measurement": "femoral shaft BMD increased", "setting": "OVX rat model; [1]", "result": 18, "unit": "%"},
      {"measurement": "total femoral BMC increased", "setting": "OVX rat model; [1]", "result": 17, "unit": "%"},
      {"measurement": "total femoral BMD increased", "setting": "OVX rat model; [1]", "result": 13, "unit": "%"},
      {"measurement": "bone formation and bone restoration in established osteopenic OVX rats", "setting": "OVX rat model", "result": "stimulates bone formation and restores bone"}
    ]}
  ]
}
